Measurements: patent publication US20250151724A1, “Liquid Soil Treatments Containing Choline” (Harrell's, LLC, priority 2023, published 2025)

System: creeping bentgrass
Test: Experiment No. 1: growth chamber pot trial, foliar GB and choline under heat and mild drought stress
Type: in vivo
Settings: for increase of chlorophyll content: day 56, vs control; for Root Viability: TTC method
Experimental: A growth chamber pot trial was conducted as follows. […] The choline used in this study was supplied in the form of choline chloride from Sigma-Aldrich, Inc. (St. Louis, MO). […] These conditions simulated summer putting green stress. The treatments were as follows: • 1. […] GB at 0.5 oz./1,000 ft^2 every 14 days. • 3. GB at 1.0 oz./1,000 ft^2 every 14 days. • 4. […] The rate and source of fertilization for treatments #2-7 was the same as treatment #1 (fertilized control), so all seven treatments received identical fertility input. […] The term “low rate” is used in this description of Experiment No. 1 to refer to 0.5 oz./1,000 ft^2 treatments, while the term “high rate” is used to refer to 1.0 oz./1,000 ft^2 treatments. […] Photochemical efficiency (PE). Photochemical Efficiency was measured with a chlorophyll fluorometer (OS-50II, Opti-Sciences, Inc., Hudson, NH) biweekly based on the Fv/Fm, which is the ratio of variable chlorophyll fluorescence (Fv) to maximum chlorophyll fluorescence (Fm). […] Chlorophyll content. After clipping yields were weighed, leaf tissues were ground into powder, and chlorophyll was extracted in pure acetone content for 72 hours, and the absorbance was measured using a spectrophotometer. • e. Leaf carotenoids were extracted in the same sample as for chlorophyll content and carotenoids were measured using a spectrophotometer (Zhang et al., 2005). • f. Leaf proline content. […] After centrifuging, the supernatant was collected, and proline was analyzed according to Wu et al., 2017. • g. Root viability. […] Root growth characteristics. At the end of trial, roots from each pot were washed and cleaned. Roots were scanned using WinRHIZOTM technology (Regent Instruments Inc., Quebec, Canada), and root length, root surface area, root diameter, and root volume were calculated. (Zhang et al., 2017). • i. Root biomass of each pot was determined at the end of the trial. Roots were dried at 65° C. for 72 hours before being weighed.

## C[N+](C)(C)CCO.[Cl-] [Choline, choline chloride]
0.5 oz
  increase of chlorophyll content: 32.4%
0.5 oz/1000 ft^2, Total
  Clippings dry wt: 0.691bc g/pot
0.5 oz/1000 ft^2, day 0
  Carotenoids: 1.32a mg/g FW
  Chlorophyll: 3.50a mg/g FW
  Leaf color (1-9, 9 = dark green): 7.5a
  PE (Fv/Fm): 0.763a
  Proline: 20.1a mg/g FW
0.5 oz/1000 ft^2, day 14
  Carotenoids: 1.32a mg/g FW
  Chlorophyll: 3.51a mg/g FW
  Clippings dry wt: 0.149b g/pot
  Leaf color (1-9, 9 = dark green): 7.3abc
  PE (Fv/Fm): 0.751a
  Proline: 46.1a mg/g FW
0.5 oz/1000 ft^2, day 28
  Carotenoids: 1.18ab mg/g FW
  Chlorophyll: 3.09ab mg/g FW
  Clippings dry wt: 0.151b g/pot
  Leaf color (1-9, 9 = dark green): 6.9a
  PE (Fv/Fm): 0.676ab
  Proline: 24.3b mg/g FW
0.5 oz/1000 ft^2, day 42
  Carotenoids: 1.12a mg/g FW
  Chlorophyll: 2.76ab mg/g FW
  Clippings dry wt: 0.159a g/pot
  Leaf color (1-9, 9 = dark green): 7.1a
  PE (Fv/Fm): 0.631b
  Proline: 30.2c mg/g FW
0.5 oz/1000 ft^2, day 56
  Carotenoids: 1.12a mg/g FW
  Chlorophyll: 2.98a mg/g FW
  Clippings dry wt: 0.233ab g/pot
  Leaf color (1-9, 9 = dark green): 7.0a
  PE (Fv/Fm): 0.649a
  Proline: 79.6a mg/g FW
0.5 oz/1000 ft^2, end of trial
  Root Biomass: 1.72ab g/pot
  Root Diameter: 0.192a mm
  Root Length: 39.7ab mm/cm^3
  Root SA (surface area): 2.40ab cm^3/cm^3
  Root Volume: 11.6a dm^3/cm^3
  Root Viability: 0.739bcd A490/g FW
1.0 oz
  increase of chlorophyll content: 22.2%
1.0 oz/1000 ft^2, Total
  Clippings dry wt: 0.842ab g/pot
1.0 oz/1000 ft^2, day 0
  Carotenoids: 1.31a mg/g FW
  Chlorophyll: 3.46a mg/g FW
  Leaf color (1-9, 9 = dark green): 7.5a
  PE (Fv/Fm): 0.777a
  Proline: 19.8a mg/g FW
1.0 oz/1000 ft^2, day 14
  Carotenoids: 1.33a mg/g FW
  Chlorophyll: 3.51a mg/g FW
  Clippings dry wt: 0.187ab g/pot
  Leaf color (1-9, 9 = dark green): 7.5a
  PE (Fv/Fm): 0.738ab
  Proline: 43.5ab mg/g FW
1.0 oz/1000 ft^2, day 28
  Carotenoids: 1.23a mg/g FW
  Chlorophyll: 3.31a mg/g FW
  Clippings dry wt: 0.183ab g/pot
  Leaf color (1-9, 9 = dark green): 7.3a
  PE (Fv/Fm): 0.718ab
  Proline: 24.6b mg/g FW
1.0 oz/1000 ft^2, day 42
  Carotenoids: 1.17a mg/g FW
  Chlorophyll: 2.93a mg/g FW
  Clippings dry wt: 0.223a g/pot
  Leaf color (1-9, 9 = dark green): 7.1a
  PE (Fv/Fm): 0.683ab
  Proline: 43.8ab mg/g FW
1.0 oz/1000 ft^2, day 56
  Carotenoids: 1.06a mg/g FW
  Chlorophyll: 2.75ab mg/g FW
  Clippings dry wt: 0.249a g/pot
  Leaf color (1-9, 9 = dark green): 7.0a
  PE (Fv/Fm): 0.664a
  Proline: 67.6a mg/g FW
1 oz/1000 ft^2, end of trial
  Root Biomass: 1.57ab g/pot
  Root Diameter: 0.192a mm
  Root Length: 39.0ab mm/cm^3
  Root SA (surface area): 2.32ab cm^3/cm^3
  Root Volume: 11.0a dm^3/cm^3
  Root Viability: 1.019abc A490/g FW
